In US5140025A, “Thienotricylene for the treatment of bronchial diseases” (BYK Gulden Lomberg Chemische Fabrik GmbH, priority 1987, dated 1992):

Assays:
M2 receptor (cardiac) = molecular target: T1, M2 receptor (cardiac) (Rattus norvegicus, UniProt P10980); assay: Receptor affinity, electrically stimulated left atrium of the rat; details: agonist carbachol, Schild slope normalised to 1.00, read-out: pA2 ± SEM, M2 receptor (cardiac) (converted)
T1 construct: isolated, left atria of rats (male 250-350 g); from tissue; host or cells: rat left atrium (isolated, male rats 250-350 g)
T1 sequence (P10980 1-466): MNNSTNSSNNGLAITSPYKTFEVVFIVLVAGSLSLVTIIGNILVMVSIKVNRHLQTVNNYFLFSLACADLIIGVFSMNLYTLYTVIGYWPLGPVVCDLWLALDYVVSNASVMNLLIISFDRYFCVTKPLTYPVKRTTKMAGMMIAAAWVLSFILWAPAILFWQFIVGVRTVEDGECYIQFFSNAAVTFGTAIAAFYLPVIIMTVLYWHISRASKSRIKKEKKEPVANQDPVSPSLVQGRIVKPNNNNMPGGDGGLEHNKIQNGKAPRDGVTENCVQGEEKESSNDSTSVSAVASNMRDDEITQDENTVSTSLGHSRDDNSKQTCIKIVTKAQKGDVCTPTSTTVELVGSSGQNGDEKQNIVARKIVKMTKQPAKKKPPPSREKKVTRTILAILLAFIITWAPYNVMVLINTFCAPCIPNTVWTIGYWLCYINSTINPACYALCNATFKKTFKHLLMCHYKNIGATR
Source text: The affinity of (±)-4,9-dihydro-3-methyl-4-[(4-methyl-1-piperazinyl)-acetyl]-10H-thieno[3,4-b][1,5]benzodiazepin-10-one (telenzepine, compound 2 in Table 7) and its conformers [(+)-enantiomer=compound 1, (-)-enantiomer=compound 3] to muscarinic M1 (ganglionic type) and M2 (cardiac type) receptors was investigated by the following methods:
Electrically Stimulated Left Atrium of the Rat (Eltze et al., 1985, Europ. J. Pharmacol. 112, 211-224).
Isometric contractions (HSE force transducer, K-30; Watanabe Linear Corder Mark 5) of isolated, left atria of rats (male 250-350 g) were recorded in an organ bath (10 ml, Tyrode nutrient solution, 31° C., gassing with carbogen, initial tension of the organs 0.25 g) under electrical stimulation (HSE stimulator; hook-shaped Pt electrodes at the base of the bath and immersed, annular Pt electrodes 1 cm below the water surface of the bath; 7 V, 3 ms, 2 Hz). After an equilibration time of 30 minutes, cumulative dose/response curves of carbachol (10^-8 -10^-6 M, in the presence of the antagonist also up to 10^-5 or 10^-4 M) were recorded simultaneously on 4 organs in each case by the technique described by van Rossum (1963). The substance to be tested was added to the organ baths 20 minutes before application of the carbachol. The pauses between the individual dose/response curves were 30-45 minutes.
The Tyrode nutrient solution used had the following composition (mM): NaCl 130, KCl 2.0, CaCl2 ·2H2 O 1.8, MgCl2 ·6H2 O 0.98, NaHCO3 12.0, NaH2 PO4 0.42 and glucose monohydrate 5.6. pA2 values (-log of the molar dissociation constants of the competitive antagonist-receptor complex) were determined by linear regression using the Schild plot: pA2 =-log [B/(x-1)], (Arunlakshana and Schild, 1959).
Table 7 below gives pA2 values of the substances, for which the slope of the regression lines for theoretically competitive antagonism have been normalised to 1.00 (Tallarida et al., 1979).

[1] = tested on: acetylcholine-induced bronchospasm; assay: Acetylcholine-induced bronchospasm in anaesthetised, spontaneously breathing guinea pigs, intravenous administration; assay type: in vivo, guinea pig (Pirbright White); details: for Mean bronchospasmolytic activity, percentage increase of Vmaxe vs control spasm / Mean bronchospasmolytic activity, percentage increase of tidal volume (TV) vs control spasm: 0-60 min; for Mean bronchospasmolytic activity, percentage increase of Vmaxe vs control spasm / Mean bronchospasmolytic activity, percentage increase of tidal volume (TV) vs control spasm / Bronchospasmolytic activity, percentage increase of Vmaxe vs control spasm / Bronchospasmolytic activity, percentage increase of tidal volume (TV) vs control spasm: x±SEM, N=10; for Bronchospasmolytic activity, percentage increase of Vmaxe vs control spasm / Bronchospasmolytic activity, percentage increase of tidal volume (TV) vs control spasm: at 60 min
Source text: Effect of Intravenously Administered Telenzepine on Acetylchline-Induced Bronchospasms in Anaesthetised, Spontaneously Breathing Guinea Pigs
Method for simultaneously recording pharmacodynamic or toxic effects on interior sensitive receptors and the respiration of guinea pigs (U. Kilian, E. Muller, E. Ch. Dittmann and J. Hamacher, Arzneim.-Forsch. 28, 1699-1708, 1978).
Pirbright White, Interfauna (Tuttlingen), 350-450 g, male.
Ethylurethane 1.2 g/kg i.p. as 12.5% aqueous solution.
Pneumotachogram: Maximum flow velocities of the respiratory air during expiration (Vmaxe, "peak flow"), tidal volume (TV).
Acetylcholine as spasmogen, 0.2-0.3 μmol/kg i.v., dissolved in 0.9% NaCl.
-10 min control spasm, 0 min administration of substance, +2, +10, +20, +30, +60 min test spasms.
Determination of the effect of telenzepine on the parameters (mean and standard error of mean, n=10) and calculation of the bronchospasmolytic activity from this as percentage inhibition of the acetylcholine-induced decrease of Vmaxe and TV by means of time/effect curves. Computation of a dose/response curve of the mean bronchospasmolytic activity during the observation time (0-60 min) from the areas under the time/effect curves and reading of 1 h ED50 values. Determination of a dose/response curve of the bronchospasmolytic activity at time 60 min and reading ED50 values.

[2] = tested on: modified Shay rat (lesion formation and acid secretion); assay: Antiulcerogenic and secretion-inhibiting action on the modified Shay rat; assay type: in vivo
Source text: The excellent gastric protective action and the gastric secretion-inhibiting action of the compound (+)-4,9-dihydro-3-methyl-4-[(4-methyl-1-piperazinyl)-acetyl]-10H-thieno[3,4-b][1,5]benzodiazepin-10-one (=compound 1 in Table 8 below) in comparison with the corresponding (-)-enantiomer (=compound 3) and with the racemate (=compound 2) can be detected in studies on the modified Shay rat. The effect of the stated compounds after intravenous (i.v.) administration on the formation of lesions and the acid secretion in the modified Shay rat is shown in Table 8 below.
Ulcers are provoked in rats (female, 180-200 g, 4 animals per cage on high grids) which have fasted for 24 hours, by pylorus ligature (under diethyl ether anaesthesia) and oral administration of 100 mg/10 ml/kg of acetylsalicylic acid. The substances to be tested are administered intravenously (1 ml/kg) directly after the pylorus ligature. The wound is closed by means of Michel clamps. 4 hours afterwards, the animals are sacrificed under anaesthesia with ether by Atlas dislocation, and resection of the stomach.
The stomach is opened along the greater curvature and clamped to a cork sheet, the amount of secreted gastric juice (volume) is determined first and its HCl content (titration with sodium hydroxide solution) being determined subsequently. The number and size (=diameter) of ulcers present are determined using a stereomicroscope, under 10×magnification. The product of severity (according to the following point scale) and number of ulcers serves as an individual lesion index.
The reduction in the means lesion index of each treated group compared with the control group (=100%) serves as a measure of the antiulcerogenic effect. The ED50 is the dose which reduces the mean lesion index or the HCl secretion by 50% compared with the control.

M1 receptor (ganglionic) = assay: Receptor affinity, electrically stimulated rabbit vas deferens in organ bath; details: vas deferens of the rabbit, agonist McN-A-343, Schild slope normalised to 1.00; listed as Compound 1
Experimental: Isometric contractions (HSE force transducer, K-30; tilt and zones, BD-9 chart recorder) of isolated seminal duct sections of rabbits (male, white New Zealand rabbits, 2.5-3.5 kg) were recorded in an organ bath (10 ml, 31° C., gassing with carbogen, initial tension of the organs 0.75 g) under electrical stimultion (HSE stimulator; hook-shaped Pt electrode 1 cm below the water surface of the bath; 30 V, 0.5 ms, 0.05 Hz). After an equilibration time of 30 minutes, cumulative dose/response curves of McN-A-343 (10^-7 -2×10^-6 M) were recorded simultaneously on 8 organ sections in each case (control curves), using the technique described by van Rossum (1963). After 3 control curves, a fixed concentration of the agonist (for example 5×10^-7, 10^-6, 3×10^-6, 10^-5 or 3×10^-5 M) per organ section was applied and, after stabilisation of the effect, increasing concentrations of the agonist to be tested were added. The nutrient solution used had the following composition (mM): NaCl 118, KCl 4.7, CaCl2 ·2H2 O 2.5, MgSO4 ·7H2 O 0.6, KH2 PO 4 1.2, NaHCO3 25.0 and glucose 11.1. In order to block α2 -adrenoreceptors, the nutrient solution additionally contained 10^-6 M yohimbine.

[3] = at time 60 min after administration, 60 min
[4] = modified Shay rat, i.v., interpolated dose, 4 h, N=24, listed as 1, 240 min

Q: With `Cc1scc2c1N(C(=O)CN1CCN(C)CC1)c1ccccc1NC2=O` [(+)-telenzepine, (+)-4,9-dihydro-3-methyl-4-[(4-methyl-1-piperazinyl)-acetyl]-10H-thieno[3,4-b][1,5]benzodiazepin-10-one] as the compound, how does the Kb (M2 receptor (cardiac)) read?
A: 21.4 nM

Q: What about the “Mean bronchospasmolytic activity, percentage increase of Vmaxe vs control spasm” value ([1]; 0.03 μmol/kg i.v.) of the same compound?
A: 13 ± 4%

Q: What about the “Mean bronchospasmolytic activity, percentage increase of tidal volume (TV) vs control spasm” value ([1]; 0.03 μmol/kg i.v.) of the same compound?
A: 17 ± 4%

Q: And the “Mean bronchospasmolytic activity, percentage increase of Vmaxe vs control spasm” value ([1]; 0.05 μmol/kg i.v.)?
A: 21 ± 4%

Q: What about the “Mean bronchospasmolytic activity, percentage increase of tidal volume (TV) vs control spasm” value ([1]; 0.05 μmol/kg i.v.) of the same compound?
A: 25 ± 5%

Q: What about the “Mean bronchospasmolytic activity, percentage increase of Vmaxe vs control spasm” value ([1]; 0.1 μmol/kg i.v.) of the same compound?
A: 57 ± 5%

Q: What about the “Mean bronchospasmolytic activity, percentage increase of tidal volume (TV) vs control spasm” value ([1]; 0.1 μmol/kg i.v.) of the same compound?
A: 62 ± 5%

Q: What about the “Mean bronchospasmolytic activity, percentage increase of Vmaxe vs control spasm” value ([1]; 0.5 μmol/kg i.v.) of the same compound?
A: 87 ± 3%

Q: What about the “Mean bronchospasmolytic activity, percentage increase of tidal volume (TV) vs control spasm” value ([1]; 0.5 μmol/kg i.v.) of the same compound?
A: 92 ± 3%

Q: And the “Mean bronchospasmolytic activity, percentage increase of Vmaxe vs control spasm” value ([1]; 1 μmol/kg i.v.)?
A: 82 ± 3%

Q: What about the “Mean bronchospasmolytic activity, percentage increase of tidal volume (TV) vs control spasm” value ([1]; 1 μmol/kg i.v.) of the same compound?
A: 85 ± 3%

Q: And the “Bronchospasmolytic activity, percentage increase of Vmaxe vs control spasm” value ([1]; 0.03 μmol/kg i.v.)?
A: 19 ± 6%

Q: What about the “Bronchospasmolytic activity, percentage increase of tidal volume (TV) vs control spasm” value ([1]; 0.03 μmol/kg i.v.) of the same compound?
A: 23 ± 7%

Q: And the “Bronchospasmolytic activity, percentage increase of Vmaxe vs control spasm” value ([1]; 0.05 μmol/kg i.v.)?
A: 35 ± 7%

Q: And the “Bronchospasmolytic activity, percentage increase of tidal volume (TV) vs control spasm” value ([1]; 0.05 μmol/kg i.v.)?
A: 39 ± 7%

Q: And the “Bronchospasmolytic activity, percentage increase of Vmaxe vs control spasm” value ([1]; 0.1 μmol/kg i.v.)?
A: 61 ± 6%

Q: And the “Bronchospasmolytic activity, percentage increase of tidal volume (TV) vs control spasm” value ([1]; 0.1 μmol/kg i.v.)?
A: 64 ± 7%

Q: And the “Bronchospasmolytic activity, percentage increase of Vmaxe vs control spasm” value ([1]; 0.5 μmol/kg i.v.)?
A: 95 ± 4%

Q: And the “Bronchospasmolytic activity, percentage increase of tidal volume (TV) vs control spasm” value ([1]; 0.5 μmol/kg i.v.)?
A: 100 ± 4%

Q: What about the “Bronchospasmolytic activity, percentage increase of Vmaxe vs control spasm” value ([1]; 1 μmol/kg i.v.) of the same compound?
A: 88 ± 4%

Q: And the “Bronchospasmolytic activity, percentage increase of tidal volume (TV) vs control spasm” value ([1]; 1 μmol/kg i.v.)?
A: 88 ± 4%

Q: And the “ED50 of bronchospasmolytic activity, TV” value [1, 3]?
A: 0.07 μmol/kg i.v.

Q: What about the “ED50 of bronchospasmolytic activity, Vmaxe” value [1, 3] of the same compound?
A: 0.07 μmol/kg i.v.

Q: And the “dose range of dose- and time-dependent inhibition of acetylcholine-induced bronchospasm” value ([1]; i.v.)?
A: 0.03-1 μmol/kg i.v.

Q: What about the “persistence of maximum effect” value ([1]; i.v., observation period) of the same compound?
A: ≥ 1 h

Q: And the “ED50 of mean bronchospasmolytic activity, TV” value ([1]; mean activity 0-60 min, 60 min)?
A: 0.08 μmol/kg i.v.

Q: And the “ED50 of mean bronchospasmolytic activity, Vmaxe” value ([1]; mean activity 0-60 min, 60 min)?
A: 0.1 μmol/kg i.v.

Q: What about the “Gastric protective action, reduction of lesion index, about ED50” value [2, 4] of the same compound?
A: ~0.01 mg/kg i.v.

Q: What about the “Inhibition of acid secretion, reduction of HCl secretion, about ED50” value [2, 4] of the same compound?
A: ~0.085 mg/kg i.v.

Q: And the “protective action with respect to stomach and intestine, doses compared with acid secretion-inhibiting doses” value ([2]; warm-blooded animals)?
A: observed with the administration of doses which are below the doses which inhibit acid secretion

Q: What about the “pA2 ± SEM, M1 receptor (ganglionic)” value (M1 receptor (ganglionic)) of the same compound?
A: 9.12 ± 0.08
